Results reported in ChEMBL document CHEMBL4364295, “Discovery of a First-in-Class Receptor Interacting Protein 2 (RIP2) Kinase Specific Clinical Candidate, 2-((4-(Benzo[d]thiazol-5-ylamino)-6-(tert-butylsulfonyl)quinazolin-7-yl)oxy)ethyl Dihydrogen Phosphate, for the Treatment of Inflammatory Diseases” (J Med Chem, 2019).
Values belong to the compound of their own block, whether it stands above or below them. Calls of active or inactive are those of the source. The calls are words filed in the database; no cut-off is given here.

Tests used:
[1] = AUC in Beagle dog assessed as 2-((4-(Benzo[d]thiazol-5-ylamino)-6-(tert-butylsulfonyl)quinazolin-7-yl)oxy)ethanol level at 2 mg/kg, po by LC/MS/MS analysis; assay type: ADME, organism-based, Canis lupus familiaris; conditions: in vivo
[2] = Half life in dog blood; assay type: ADME, tissue-based, Canis lupus familiaris
[3] = Prodrug conversion in minipig hepatocytes assessed as dephosphorylation at 20 uM measured after 4 hrs; assay type: ADME, cell-based, Sus scrofa, Hepatocyte; conditions: pig
[4] = Prodrug conversion in Han Wistar rat brain assessed as 2-((4-(Benzo[d]thiazol-5-ylamino)-6-(tert-butylsulfonyl)quinazolin-7-yl)oxy)ethanol formation at 2 mg/kg, iv administered as infusion for 4 hrs; assay type: ADME, organism-based; conditions: in vivo
[5] = Volume of distribution at steady state in Beagle dog assessed as 2-((4-(Benzo[d]thiazol-5-ylamino)-6-(tert-butylsulfonyl)quinazolin-7-yl)oxy)ethanol level at 2 mg/kg, po or 0.9 mg/kg, iv by LC/MS/MS analysis; assay type: ADME, organism-based, Canis lupus familiaris; conditions: in vivo
[6] = Prodrug conversion in human hepatocytes assessed as 2-((4-(Benzo[d]thiazol-5-ylamino)-6-(tert-butylsulfonyl)quinazolin-7-yl)oxy)ethanol formation at 20 uM measured after 4 hrs; assay type: ADME, cell-based, Hepatocyte
[7] = Prodrug conversion in Han Wistar rat eye assessed as 2-((4-(Benzo[d]thiazol-5-ylamino)-6-(tert-butylsulfonyl)quinazolin-7-yl)oxy)ethanol formation at 2 mg/kg, iv administered as infusion for 4 hrs; assay type: ADME, organism-based; conditions: in vivo
[8] = Half life in rat intestinal S9 fraction; assay type: ADME, subcellular, Intestine
[9] = Prodrug conversion in human hepatocytes assessed as dephosphorylation at 20 uM measured after 4 hrs; assay type: ADME, cell-based, Hepatocyte
[10] = Prodrug conversion in rat hepatocytes assessed as 2-(4-(benzo[d]thiazol-5-ylamino)-7-(2-hydroxyethoxy)quinazolin-6-ylsulfonyl)-2-methylpropan-1-ol formation at 20 uM measured after 4 hrs; assay type: ADME, cell-based, Hepatocyte
[11] = Prodrug conversion in human hepatocytes assessed as 2-(4-(benzo[d]thiazol-5-ylamino)-6-(tert-butylsulfonyl)-1,2,3,4-tetrahydroquinazolin-7-yloxy)ethanol formation at 20 uM measured after 4 hrs; assay type: ADME, cell-based, Hepatocyte
[12] = Oral bioavailability in Beagle dog assessed as 2-((4-(Benzo[d]thiazol-5-ylamino)-6-(tert-butylsulfonyl)quinazolin-7-yl)oxy)ethanol level at 2 mg/kg by LC/MS/MS analysis; assay type: ADME, organism-based, Canis lupus familiaris; conditions: in vivo
[13] = Prodrug conversion in rat hepatocytes assessed as 2-(4-(benzo[d]thiazol-5-ylamino)-6-(tert-butylsulfonyl)-1,2,3,4-tetrahydroquinazolin-7-yloxy)ethanol formation at 20 uM measured after 4 hrs; assay type: ADME, cell-based, Hepatocyte
[14] = Half life in dog intestinal S9 fraction; assay type: ADME, subcellular, Canis lupus familiaris, Intestine
[15] = Prodrug conversion in human hepatocytes assessed as 2-(4-(benzo[d]thiazol-5-ylamino)-6-(tert-butylsulfonyl)quinazolin-7-yloxy)acetic acid formation at 20 uM measured after 4 hrs; assay type: ADME, cell-based, Hepatocyte
[16] = Prodrug conversion in rat hepatocytes assessed as 2-((4-(Benzo[d]thiazol-5-ylamino)-6-(tert-butylsulfonyl)quinazolin-7-yl)oxy)ethanol formation at 20 uM measured after 4 hrs; assay type: ADME, cell-based, Hepatocyte
[17] = Prodrug conversion in Sprague-Dawley rat hepatic portal vein assessed as 2-((4-(Benzo[d]thiazol-5-ylamino)-6-(tert-butylsulfonyl)quinazolin-7-yl)oxy)ethanol formation; assay type: ADME; conditions: in vivo
[18] = Drug uptake in Sprague-Dawley rat systemic circulation at 2 mg/kg, po or 1.1 mg/kg, iv by LC/MS/MS analysis; assay type: ADME, organism-based; conditions: in vivo
[19] = Prodrug conversion in mouse blood assessed as 2-((4-(Benzo[d]thiazol-5-ylamino)-6-(tert-butylsulfonyl)quinazolin-7-yl)oxy)ethanol formation at 0.25 to 145 mg/kg, po administered twice daily via gavage for 8 days; assay type: ADME, organism-based; conditions: in vivo, 192 h
[20] = Prodrug conversion in minipig hepatocytes assessed as 2-(4-(benzo[d]thiazol-5-ylamino)-6-(tert-butylsulfonyl)-1,2,3,4-tetrahydroquinazolin-7-yloxy)ethanol formation at 20 uM measured after 4 hrs; assay type: ADME, cell-based, Sus scrofa, Hepatocyte; conditions: pig
[21] = Prodrug conversion in minipig hepatocytes assessed as 2-((4-(Benzo[d]thiazol-5-ylamino)-6-(tert-butylsulfonyl)quinazolin-7-yl)oxy)ethanol formation at 20 uM measured after 4 hrs; assay type: ADME, cell-based, Sus scrofa, Hepatocyte; conditions: pig
[22] = Drug uptake in Han Wistar rat eye at 2 mg/kg, iv administered as infusion for 4 hrs; assay type: ADME, organism-based; conditions: in vivo
[23] = Prodrug conversion in human hepatocytes assessed as hydrogenation at 20 uM measured after 4 hrs; assay type: ADME, cell-based, Hepatocyte
[24] = Half life in human intestinal S9 fraction; assay type: ADME, subcellular, Intestine
Intestinal mucosa = assay: Antiinflammatory activity in ulcerative colitis patient derived inflamed intestinal mucosa assessed as reduction in IL6 production measured after overnight incubation by immunoassay; assay type: functional, tissue-based; conditions: Homo sapiens
[25] = Clearance in rat hepatocytes; assay type: ADME, cell-based, Hepatocyte
[26] = molecular target: Tyrosine-protein kinase ABL2 (Homo sapiens) (UniProt P42684); assay: Inhibition of human ABL2 at 1 uM using EAIYAAPFAKKK as substrate in presence of [gamma-33P]ATP relative to control
Chain of Tyrosine-protein kinase ABL2 (Homo sapiens) (P42684 whole entry): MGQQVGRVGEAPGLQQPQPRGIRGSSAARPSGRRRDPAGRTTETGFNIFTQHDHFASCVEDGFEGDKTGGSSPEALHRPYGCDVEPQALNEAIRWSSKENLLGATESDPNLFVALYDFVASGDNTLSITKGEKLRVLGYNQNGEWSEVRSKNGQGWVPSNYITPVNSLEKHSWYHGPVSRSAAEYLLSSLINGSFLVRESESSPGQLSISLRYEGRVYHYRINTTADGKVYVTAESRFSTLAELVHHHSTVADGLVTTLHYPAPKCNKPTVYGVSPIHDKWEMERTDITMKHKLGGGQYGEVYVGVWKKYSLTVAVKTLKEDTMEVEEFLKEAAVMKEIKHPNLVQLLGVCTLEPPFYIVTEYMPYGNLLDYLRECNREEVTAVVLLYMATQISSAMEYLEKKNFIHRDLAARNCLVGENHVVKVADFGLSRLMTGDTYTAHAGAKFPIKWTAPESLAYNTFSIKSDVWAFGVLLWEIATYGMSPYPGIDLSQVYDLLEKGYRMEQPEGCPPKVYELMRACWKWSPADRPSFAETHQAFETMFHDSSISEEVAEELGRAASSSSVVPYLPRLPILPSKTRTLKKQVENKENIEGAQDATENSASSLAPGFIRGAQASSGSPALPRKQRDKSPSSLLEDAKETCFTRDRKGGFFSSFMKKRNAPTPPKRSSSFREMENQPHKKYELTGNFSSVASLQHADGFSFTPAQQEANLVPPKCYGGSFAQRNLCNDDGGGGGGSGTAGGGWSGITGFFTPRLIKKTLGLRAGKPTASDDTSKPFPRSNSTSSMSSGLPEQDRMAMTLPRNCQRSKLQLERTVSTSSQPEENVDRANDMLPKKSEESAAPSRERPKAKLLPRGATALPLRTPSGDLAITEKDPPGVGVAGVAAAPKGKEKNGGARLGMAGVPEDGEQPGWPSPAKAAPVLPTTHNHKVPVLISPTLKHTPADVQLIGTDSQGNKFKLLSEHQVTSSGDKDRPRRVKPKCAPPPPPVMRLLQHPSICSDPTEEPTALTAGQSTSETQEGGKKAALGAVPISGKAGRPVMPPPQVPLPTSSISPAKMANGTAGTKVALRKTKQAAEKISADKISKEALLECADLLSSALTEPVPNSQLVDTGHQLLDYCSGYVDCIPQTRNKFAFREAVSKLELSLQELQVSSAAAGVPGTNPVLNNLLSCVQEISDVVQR

[27] = AUC in Sprague-Dawley rat at 200 mg/kg, po using crystalline sample during 7 day dose ranging study by LC/MS/MS analysis; assay type: ADME, organism-based; conditions: in vivo
[28] = Clearance in minipig hepatocytes; assay type: ADME, cell-based, Sus scrofa, Hepatocyte; conditions: pig
[29] = Clearance in human hepatocytes; assay type: ADME, cell-based, Hepatocyte
[30] = Dose normalized AUC in Sprague-Dawley rat at 20 mg/kg, po using crystalline sample during 7 day dose ranging study by LC/MS/MS analysis; assay type: ADME, organism-based; conditions: in vivo, 168 h
[31] = Volume of distribution at steady state in Beagle dog at 2 mg/kg, po or 1.1 mg/kg, iv by LC/MS/MS analysis; assay type: ADME, organism-based, Canis lupus familiaris; conditions: in vivo, read-out: Vdss
[32] = Oral bioavailability in Beagle dog at 2 mg/kg by LC/MS/MS analysis; assay type: ADME, organism-based, Canis lupus familiaris; conditions: in vivo
[33] = AUC in Gottingen minipig at 1 mg/kg, po by LC/MS/MS analysis; assay type: ADME, organism-based, Sus scrofa; conditions: pig, in vivo
Toll-like receptor 4 = Toll-like receptor 4 (Homo sapiens, UniProt O00206); assay: Inhibition of TLR4 in human monocytes assessed as reduction in LPS-induced TNFalpha production; assay type: cell-based
Chain of Toll-like receptor 4 (O00206 whole entry): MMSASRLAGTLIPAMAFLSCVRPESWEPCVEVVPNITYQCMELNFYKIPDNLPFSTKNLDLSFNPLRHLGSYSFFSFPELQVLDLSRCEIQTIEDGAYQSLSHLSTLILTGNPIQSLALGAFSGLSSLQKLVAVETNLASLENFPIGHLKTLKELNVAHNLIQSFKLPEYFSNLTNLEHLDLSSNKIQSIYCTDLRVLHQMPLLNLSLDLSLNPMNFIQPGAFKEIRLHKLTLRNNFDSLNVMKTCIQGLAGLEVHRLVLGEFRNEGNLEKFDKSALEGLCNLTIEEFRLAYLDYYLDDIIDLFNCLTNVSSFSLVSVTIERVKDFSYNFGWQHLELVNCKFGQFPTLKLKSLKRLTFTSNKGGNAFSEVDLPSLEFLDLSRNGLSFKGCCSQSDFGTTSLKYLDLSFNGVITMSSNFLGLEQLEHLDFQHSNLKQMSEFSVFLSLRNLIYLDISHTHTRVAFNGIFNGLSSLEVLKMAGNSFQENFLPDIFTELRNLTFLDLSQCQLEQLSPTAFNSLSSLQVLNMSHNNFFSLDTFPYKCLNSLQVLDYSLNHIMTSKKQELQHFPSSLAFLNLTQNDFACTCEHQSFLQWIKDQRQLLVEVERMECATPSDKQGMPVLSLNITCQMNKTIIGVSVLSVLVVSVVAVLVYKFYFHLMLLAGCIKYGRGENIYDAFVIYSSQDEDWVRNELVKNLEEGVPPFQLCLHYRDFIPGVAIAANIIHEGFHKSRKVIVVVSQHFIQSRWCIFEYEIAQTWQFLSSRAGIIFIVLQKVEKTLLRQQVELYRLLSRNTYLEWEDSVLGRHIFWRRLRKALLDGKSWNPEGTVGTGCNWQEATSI

[34] = Dose normalized AUC in Sprague-Dawley rat at 200 mg/kg, po using crystalline sample during 7 day dose ranging study by LC/MS/MS analysis; assay type: ADME, organism-based; conditions: in vivo, 168 h
Cricetinae = assay: Displacement of [125I]2-iodomelatonin from hamster MT3 receptor at 10 uM measured after 60 mins by scintillation counting method
[35] = Volume of distribution at steady state in Sprague-Dawley rat at 2 mg/kg, po or 0.5 mg/kg, iv by LC/MS/MS analysis; assay type: ADME, organism-based; conditions: in vivo, read-out: Vdss
[36] = Oral bioavailability in Sprague-Dawley rat at 2 mg/kg by LC/MS/MS analysis; assay type: ADME, organism-based; conditions: in vivo
[37] = Cmax in Beagle dog at 2 mg/kg, po by LC/MS/MS analysis; assay type: ADME, organism-based, Canis lupus familiaris; design: dose 2 mg/kg, route oral; conditions: in vivo
[38] = Terminal half life in Beagle dog at 2 mg/kg, po or 1.1 mg/kg, iv by LC/MS/MS analysis; assay type: ADME, organism-based, Canis lupus familiaris; conditions: in vivo, read-out: beta t1/2 (converted)
[39] = AUC in Beagle dog at 2 mg/kg, po by LC/MS/MS analysis; assay type: ADME, organism-based, Canis lupus familiaris; conditions: in vivo
[40] = Terminal half life in Gottingen minipig at 1 mg/kg, po or 0.4 mg/kg, iv by LC/MS/MS analysis; assay type: ADME, organism-based, Sus scrofa; conditions: pig, in vivo, read-out: beta t1/2 (converted)

AUC [1]: 4400 ng·h/mL
half-life [2]: 21 min
Drug metabolism [3]: Metabolite_Detected
Drug metabolism [4]: Metabolite_Detected
Vdss [5]: 2 L/kg
Drug metabolism [6]: Metabolite_Detected
Drug metabolism [7]: Metabolite_Detected
half-life [8]: 3.3 min
Drug metabolism [9]: Metabolite_Detected
Drug metabolism [10]: Metabolite_Detected
Drug metabolism [11]: Metabolite_Detected
F [12]: 100%
Drug metabolism [13]: Metabolite_Detected
half-life [14]: 8 min
Drug metabolism [15]: Metabolite_Detected
Drug metabolism [16]: Metabolite_Detected
Drug metabolism [17]: Metabolite_Detected
Drug uptake [18]: Not Active
Drug metabolism [19]: Metabolite_Detected
Drug metabolism [20]: Metabolite_Detected
Drug metabolism [21]: Metabolite_Detected
Drug uptake [22]: Not Active
Drug metabolism [23]: Metabolite_Detected
half-life [24]: 18.3 min
SMILES: CC(C)(C)S(=O)(=O)c1cc2c(Nc3ccc4scnc4c3)ncnc2cc1OCCOP(=O)(O)O.[CaH2]

CLH [25]: < 0.48 mL/min/g
inhibition [26]: 70 to 90%
AUC at 168 h [27]: 41400 ng·h/mL
CLH [28]: 0.55 mL/min/g
CLH [29]: < 0.48 mL/min/g
AUC/dose [30]: 0.44 kg·h/L
Vd [31]: 2.6 L/kg
bioavailability [32]: 57%
AUC [33]: 85 ng·h/mL
IC50 (Toll-like receptor 4): > 10000 nM
AUC/dose [34]: 0.21 kg·h/L
inhibition (Cricetinae): Active
Vd [35]: 4.1 L/kg
bioavailability [36]: 39%
Cmax [37]: 470 ng/mL
half-life [38]: 306 min
AUC [39]: 1800 ng·h/mL
half-life [40]: 114 min
SMILES: CC(C)(C)S(=O)(=O)c1cc2c(Nc3ccc4scnc4c3)ncnc2cc1OCCO
Activity (Intestinal mucosa): Dose-dependent effect
IC50 (Intestinal mucosa): 10 nM
